# Reference: ChEMBL document CHEMBL1134712, “2-Aryl indole NK1 receptor antagonists: optimisation of indole substitution” (Bioorg Med Chem Lett, 2001)
# How the values were obtained:
# [1] = target: Substance-P receptor (Homo sapiens, UniProt P25103); assay: Concentration required for displacement of [125I]-labeled substance P from cloned hNK1 receptor expressed in CHO cells; type: cell-based
# [2] = organism: Rattus norvegicus; assay: Hepatic portal AUC was determined by pharmacokinetic study conducted in portal vein cannulated rats; type: ADME, organism-based; details: in vivo
# [3] = test system: Gerbillinae; assay: Percent inhibition of foot-tapping at 1 mg/kg, iv after pre-treatment time of 2 hr […]; type: functional
# [4] = organism: Rattus norvegicus; assay: Systemic AUC was determined by pharmacokinetic study conducted in portal vein cannulated rats; type: ADME, organism-based; details: in vivo
# [5] = test system: Gerbillinae; assay: Percent inhibition of gerbil foot-tapping at 1 mg/kg, iv immediately following pre-treatment […]; type: functional
# [6] = Plasma clearance rate determined in rats; type: ADME, organism-based; details: rat, read-out: Clearance rate
# [7] = test system: Gerbillinae; assay: In vivo inhibitory dose determined in the gerbil foot-tapping assay after intravenous administration; type: functional; details: read-out: ID50 (the source's name)
# [8] = Percent oral bioavailability determined in rats; type: ADME, organism-based; details: rat, in vivo, read-out: Bioavailabiility
# [9] = test system: Gerbillinae; assay: Percent inhibition of gerbil foot-tapping at 1 mg/kg, iv after pre-treatment time of 2 hr; type: functional
# Chain of Substance-P receptor (P25103 whole entry): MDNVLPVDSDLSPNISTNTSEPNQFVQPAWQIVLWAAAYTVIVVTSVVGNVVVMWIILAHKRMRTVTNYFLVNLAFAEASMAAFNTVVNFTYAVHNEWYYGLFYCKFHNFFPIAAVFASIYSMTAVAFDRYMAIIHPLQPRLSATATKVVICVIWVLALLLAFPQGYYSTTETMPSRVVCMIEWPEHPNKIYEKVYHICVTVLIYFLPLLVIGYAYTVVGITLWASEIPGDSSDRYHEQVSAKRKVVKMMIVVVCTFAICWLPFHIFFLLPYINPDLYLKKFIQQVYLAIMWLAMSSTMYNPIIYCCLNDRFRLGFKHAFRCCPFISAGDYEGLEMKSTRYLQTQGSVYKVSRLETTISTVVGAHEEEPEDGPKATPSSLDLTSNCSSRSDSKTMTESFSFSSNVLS
Compound,IC50 [1] [nM],also measured
COc1ccccc1N1CCN(C(=O)CCc2c(-c3ccc(Cl)cc3)[nH]c3cc(Cl)cc(Cl)c23)CC1,570,–
O=C(CCc1c(-c2ccc(Cl)cc2)nc2ccc(Cl)cn12)N1CCC(O)(Cc2ccccc2)CC1,0.78,–
COc1ccccc1N1CCN(C(=O)CCc2c(-c3ccccc3)[nH]c3ccc(F)cc23)CC1,87,–
Cn1c(-c2ccc(Cl)cc2)c(CCC(=O)N2CCC(O)(Cc3ccccc3)CC2)c2cc(Cl)ncc21,0.22,–
COc1ccccc1N1CCN(C(=O)CCc2c(-c3ccc(Br)cc3)[nH]c3ccc(C)cc23)CC1,1,–
Cn1c(-c2ccc(Cl)cc2)c(CCC(=O)N2CCC(O)(Cc3ccccc3)CC2)c2nc(Cl)ccc21,2.6,–
C=Cc1ccc2c(c1)c(CCC(=O)N1CCC(O)(Cc3ccccc3)CC1)c(-c1ccc(Cl)cc1)n2C,0.27,–
Cn1c(-c2ccc(Cl)cc2)c(CCC(=O)N2CCC(O)(Cc3ccccc3)CC2)c2cc(Cl)cnc21,0.15,AUC [2]: 96.8 ng·h/mL; inhibition in vivo at 1 mg/kg [3]: 10%; AUC [4]: 8 ng·h/mL; inhibition in vivo at 1 mg/kg [5]: 100%
Cn1c(-c2ccc(Cl)cc2)c(CCC(=O)N2CCC(O)(Cc3ccccc3)CC2)c2cc(Cl)ccc21,0.16,clearance [6]: 31 mL/min/kg; ED50 [7]: 0.3 mg/kg; AUC [2]: 24.7 ng·h/mL; bioavailability [8]: 2.3%; AUC [4]: < 4 ng·h/mL
Cn1c(-c2ccc(Cl)cc2)c(CCC(=O)N2CCC(O)(Cc3ccccc3)CC2)c2cc(-c3ccncc3)ccc21,5.5,–
Cn1c(-c2ccc(Cl)cc2)c(CCC(=O)N2CCC(O)(Cc3ccccc3)CC2)c2cc(Br)ccc21,0.22,–
COc1ccccc1N1CCN(C(=O)CCc2c(-c3ccccc3)[nH]c3ccc(Cl)cc23)CC1,5.6,–
CC(=O)c1ccc2c(c1)c(CCC(=O)N1CCC(O)(Cc3ccccc3)CC1)c(-c1ccc(Cl)cc1)n2C,0.19,inhibition in vivo at 1 mg/kg [9]: 14%
COc1ccccc1N1CCN(C(=O)CCc2c(-c3ccc(Cl)cc3)[nH]c3ccc(Cl)cc23)CC1,0.89,–
COc1ccccc1N1CCN(C(=O)CCc2c(-c3ccc(Cl)cc3)[nH]c3cccc(Cl)c23)CC1,950,–
COc1ccccc1N1CCN(C(=O)CCc2c(-c3ccc(Cl)cc3)[nH]c3c(Cl)cc(Cl)cc23)CC1,14,–
Cn1c(-c2ccc(Cl)cc2)c(CCC(=O)N2CCC(O)(Cc3ccccc3)CC2)c2cc(-c3ccco3)ccc21,0.79,–
COc1ccccc1N1CCN(C(=O)CCc2c(-c3ccc(Cl)cc3)[nH]c3ccc(C)cc23)CC1,0.6,–

# Continued by falling IC50 [1], values first:
IC50 [1] [nM],Compound,also measured
41,Cn1c(-c2ccc(Cl)cc2)c(CCC(=O)N2CCC(O)(Cc3ccccc3)CC2)c2cnccc21,–
31,COc1ccccc1N1CCN(C(=O)CCc2c(-c3ccc(Cl)cc3)[nH]c3ccccc23)CC1,–
8.9,COc1ccccc1N1CCN(C(=O)CCc2c(-c3ccc(Cl)cc3)[nH]c3ccc(OC(F)(F)F)cc23)CC1,–
6.3,Cn1c(-c2ccc(Cl)cc2)c(CCC(=O)N2CCC(O)(Cc3ccccc3)CC2)c2cc(N3CCOCC3)ccc21,–
5.5,Cn1c(-c2ccc(Cl)cc2)c(CCC(=O)N2CCC(O)(Cc3ccccc3)CC2)c2cc(-c3cccnc3)ccc21,–
4.9,COc1ccccc1N1CCN(C(=O)CCc2c(-c3ccc(Cl)cc3)[nH]c3cc(Cl)ccc23)CC1,–
3.3,Cn1c(-c2ccc(Cl)cc2)c(CCC(=O)N2CCC(O)(Cc3ccccc3)CC2)c2cc(N3CCCCC3)ccc21,–
2.3,Cn1c(-c2ccc(Cl)cc2)c(CCC(=O)N2CCC(O)(Cc3ccccc3)CC2)c2cc(-n3cccc3)ccc21,–
1.7,Cn1c(-c2ccc(Cl)cc2)c(CCC(=O)N2CCC(O)(Cc3ccccc3)CC2)c2cc(-c3ccccn3)ccc21,–
